Where a name gives a salt, the structure may show the parent alone.

The values below come from US20110046179A1, “NOVEL PIPERIDINE DERIVATIVES AND THEIR USE AS MONOAMINE NEUROTRANSMITTER RE-UPTAKE INHIBITORS” (priority 2006, published 2011).

In series [1] the target is T1, serotonine (5-HT) reuptake in synaptosomes (Rattus norvegicus, UniProt P31652).
T1 construct: in synaptosomes as described in WO 97/16451; from tissue; host or cells: synaptosomes (brain tissue)
As to the kind of experiment: Inhibition of 5-HT reuptake in synaptosomes. The format is biochemical. Particulars: 3H-5-HT, read-out: 5-HT-uptake IC50. On the procedure:
(§1) A number of compounds were tested for their ability to inhibit the reuptake of the monoamine neurotransmitters dopamine (DA) noradrenaline (NA) and serotonine (5-HT) in synaptosomes as described in WO 97/16451.
(§2) The test values are given as IC50 (the concentration (μM) of the test substance which inhibits the specific binding of ^3H-DA, ^3H-NA, or ^3H-5-HT by 50%).

Series [2] has as its target T2, dopamine (DA) reuptake in synaptosomes (Rattus norvegicus, UniProt P23977).
T2 construct: in synaptosomes as described in WO 97/16451; from tissue; host or cells: synaptosomes (brain tissue)
The series can be described thus: Inhibition of DA reuptake in synaptosomes. Format: biochemical. Particulars: 3H-DA, read-out: DA-uptake IC50. On the procedure:
as §1, §2

The target in series [3] is T3, noradrenaline (NA) reuptake in synaptosomes (Rattus norvegicus).
T3 construct: in synaptosomes as described in WO 97/16451; from tissue; host or cells: synaptosomes (brain tissue)
The series can be described thus: Inhibition of NA reuptake in synaptosomes. Particulars: 3H-NA, read-out: NA-uptake IC50. The format is biochemical. On the procedure: as §1, §2

T2 sequence (P23977 whole entry): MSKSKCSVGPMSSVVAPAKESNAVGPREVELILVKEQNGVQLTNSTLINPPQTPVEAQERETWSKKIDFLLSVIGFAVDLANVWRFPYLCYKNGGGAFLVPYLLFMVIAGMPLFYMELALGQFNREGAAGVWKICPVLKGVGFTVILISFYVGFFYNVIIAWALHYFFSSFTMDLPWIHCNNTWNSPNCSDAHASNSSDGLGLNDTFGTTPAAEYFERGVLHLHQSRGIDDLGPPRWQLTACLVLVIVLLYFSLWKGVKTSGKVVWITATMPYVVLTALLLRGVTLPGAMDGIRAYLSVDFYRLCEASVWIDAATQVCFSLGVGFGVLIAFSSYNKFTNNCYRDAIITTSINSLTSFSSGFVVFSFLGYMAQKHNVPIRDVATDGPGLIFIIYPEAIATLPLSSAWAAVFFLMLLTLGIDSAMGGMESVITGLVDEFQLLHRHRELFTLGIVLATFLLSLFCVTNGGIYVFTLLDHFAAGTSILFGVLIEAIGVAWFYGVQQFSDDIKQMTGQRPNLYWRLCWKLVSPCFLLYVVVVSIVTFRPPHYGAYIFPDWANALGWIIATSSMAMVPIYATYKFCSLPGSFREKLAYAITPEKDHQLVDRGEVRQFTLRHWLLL
T1 sequence (P31652 whole entry): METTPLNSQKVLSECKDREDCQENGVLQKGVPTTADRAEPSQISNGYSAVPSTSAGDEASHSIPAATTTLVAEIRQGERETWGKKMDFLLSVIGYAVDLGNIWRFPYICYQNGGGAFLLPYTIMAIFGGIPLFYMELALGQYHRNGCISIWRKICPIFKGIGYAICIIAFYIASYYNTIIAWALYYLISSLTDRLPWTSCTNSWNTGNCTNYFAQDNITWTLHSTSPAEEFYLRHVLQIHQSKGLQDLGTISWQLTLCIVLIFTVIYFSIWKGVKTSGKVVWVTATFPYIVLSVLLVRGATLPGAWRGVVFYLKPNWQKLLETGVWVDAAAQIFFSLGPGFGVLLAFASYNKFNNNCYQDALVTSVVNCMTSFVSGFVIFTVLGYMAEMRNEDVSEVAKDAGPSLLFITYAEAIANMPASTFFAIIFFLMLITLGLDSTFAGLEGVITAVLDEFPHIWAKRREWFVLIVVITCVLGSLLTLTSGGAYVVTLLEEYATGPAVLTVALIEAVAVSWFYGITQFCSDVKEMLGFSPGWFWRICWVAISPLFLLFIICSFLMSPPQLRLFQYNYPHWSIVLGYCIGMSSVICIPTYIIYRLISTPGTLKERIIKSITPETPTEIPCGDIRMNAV
T3 sequence (Q63380 1-617): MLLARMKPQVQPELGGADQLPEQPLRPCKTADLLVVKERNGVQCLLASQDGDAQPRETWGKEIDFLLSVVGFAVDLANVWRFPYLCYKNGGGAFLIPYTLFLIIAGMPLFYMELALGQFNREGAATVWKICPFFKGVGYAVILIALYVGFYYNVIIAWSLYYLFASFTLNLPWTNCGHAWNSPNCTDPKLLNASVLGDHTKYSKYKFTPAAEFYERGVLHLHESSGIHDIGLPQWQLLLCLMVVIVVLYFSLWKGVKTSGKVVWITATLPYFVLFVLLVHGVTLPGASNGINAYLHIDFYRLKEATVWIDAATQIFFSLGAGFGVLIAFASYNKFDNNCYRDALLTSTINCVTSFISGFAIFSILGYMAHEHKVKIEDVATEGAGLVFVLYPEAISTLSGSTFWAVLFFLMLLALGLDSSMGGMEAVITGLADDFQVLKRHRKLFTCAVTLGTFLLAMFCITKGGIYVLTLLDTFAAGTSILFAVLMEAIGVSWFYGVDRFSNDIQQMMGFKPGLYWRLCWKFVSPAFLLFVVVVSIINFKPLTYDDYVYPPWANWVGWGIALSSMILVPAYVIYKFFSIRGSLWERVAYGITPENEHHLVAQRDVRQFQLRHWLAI

As to `Clc1ccc(CC2(COc3ccccc3)CCNCC2)cc1Cl` (as salt: fumarate) [Compound 5ac, 4-(3,4-Dichloro-benzyl)-4-phenoxymethyl-piperidine], the melting point – broadly, the temperature, or range, at which the solid turns liquid – lay within 165 to 167 °C.

`COCC1(Cc2ccc3ccccc3c2)CCNCC1` (as salt: fumarate) [Compound 5da, 4-Methoxymethyl-4-naphthalen-2-ylmethyl-piperidine] returned a melting point of 139 to 142 °C.

Take `COCC1(Cc2ccc(Cl)c(Cl)c2)CCNCC1.O=C(O)/C=C/C(=O)O` [Compound 5aa, 4-(3,4-Dichloro-benzyl)-4-methoxymethyl-piperidine fumaric acid salt]: the melting point lay in the range of 158.1 to 162.2 °C. In addition, the IC50 (as a rule, the midpoint of a concentration-inhibition curve) in series [1] is 22 nM. The IC50 in series [2] is 1600 nM. In series [3], the IC50 turned out to be 480 nM.

For the compound `Clc1ccc(CC2(COc3cccc(Cl)c3Cl)CCNCC2)cc1Cl` [Compound 5ad, 4-(3,4-Dichloro-benzyl)-4-(2,3-dichloro-phenoxymethyl)-piperidine], the melting point is 93.9 to 94.6 °C.

With `Clc1ccc(CC2(COc3ccc(Cl)c(Cl)c3)CCNCC2)cc1Cl` (as salt: fumarate) [Compound 5ae, 4-(3,4-Dichloro-benzyl)-4-(3,4-dichloro-phenoxymethyl)-piperidine], the melting point was in the range of 166.3 to 168.9 °C.

With `CCOCC1(Cc2ccc(Cl)c(Cl)c2)CCNCC1.O=C(O)/C=C/C(=O)O`, the melting point was in the range of 147.4 to 150.6 °C.

For `COCC1(Cc2cccc(Cl)c2Cl)CCNCC1` (as salt: fumarate) [Compound 5ba, 4-(2,3-Dichloro-benzyl)-4-methoxymethyl-piperidine], the melting point was 167 to 168.4 °C.

Regarding `Clc1ccc(OCC2(Cc3ccccc3)CCNCC2)cc1Cl` [Compound 5ce, 4-Benzyl-4-(3,4-dichloro-phenoxymethyl)-piperidine], the melting point lay within 77.7 to 79.3 °C. Also, the IC50 in series [1] was determined as 0.26 nM. Also, in series [2], the IC50 is 6 nM. Further, in series [3], the IC50 worked out at 4.8 nM.

Compound `OCC1(Cc2ccc(Cl)c(Cl)c2)CCNCC1` [Compound 5a, [4-(3,4-Dichloro-benzyl)-piperidin-4-yl]-methanol] gave a melting point of 147.7 to 148.7 °C.
